Measured values reported in ChEMBL document CHEMBL5696442, “Discovery of type II inhibitors of TGFβ-activated kinase 1 (TAK1) and mitogen-activated protein kinase kinase kinase kinase 2 (MAP4K2)” (J Med Chem, 2015).
The source made the active and inactive calls. No cut-off for these calls is given here.

How the values were obtained:
[1] = target: 5'-AMP-activated protein kinase catalytic subunit alpha-2 (Homo sapiens) (UniProt P54646); test: Inhibition of AMPKa2 Lys1 labeling site in human Huh-7 cell lysate at 1 uM by KiNativ Profiling analysis relative to control; type: subcellular
[2] = target: Ribosomal protein S6 kinase alpha-5 (Homo sapiens) (UniProt O75582); test: Inhibition of MSK1 domain1 ATP labeling site in human Huh-7 cell lysate at 1 uM by KiNativ Profiling analysis relative to control; type: subcellular
Chain of Ribosomal protein S6 kinase alpha-5 (Homo sapiens) (O75582 whole entry, looked up, the tested form may be a part): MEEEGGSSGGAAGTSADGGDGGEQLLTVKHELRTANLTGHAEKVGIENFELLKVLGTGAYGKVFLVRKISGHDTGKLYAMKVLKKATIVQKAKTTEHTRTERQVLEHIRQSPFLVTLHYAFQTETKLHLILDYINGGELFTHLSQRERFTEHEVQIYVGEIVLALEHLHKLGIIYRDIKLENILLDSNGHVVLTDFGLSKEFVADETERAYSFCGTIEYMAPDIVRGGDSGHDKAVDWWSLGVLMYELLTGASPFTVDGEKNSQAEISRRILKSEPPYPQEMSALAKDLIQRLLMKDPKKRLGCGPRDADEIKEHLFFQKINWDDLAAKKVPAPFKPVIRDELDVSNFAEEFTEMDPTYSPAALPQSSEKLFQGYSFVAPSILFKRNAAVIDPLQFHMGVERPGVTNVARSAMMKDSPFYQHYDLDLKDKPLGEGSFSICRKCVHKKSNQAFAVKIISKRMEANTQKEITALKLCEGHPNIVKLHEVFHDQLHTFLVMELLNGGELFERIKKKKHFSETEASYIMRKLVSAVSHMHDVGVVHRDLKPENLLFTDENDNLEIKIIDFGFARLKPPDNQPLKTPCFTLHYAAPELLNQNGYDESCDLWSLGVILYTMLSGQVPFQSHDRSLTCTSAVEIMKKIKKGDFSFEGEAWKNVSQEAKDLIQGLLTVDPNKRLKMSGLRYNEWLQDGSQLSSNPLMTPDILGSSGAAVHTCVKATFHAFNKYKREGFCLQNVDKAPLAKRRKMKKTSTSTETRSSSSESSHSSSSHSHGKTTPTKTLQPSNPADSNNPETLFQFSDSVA

[3] = target: T1, Phosphatidylinositol 5-phosphate 4-kinase type-2 alpha (Homo sapiens) (UniProt P48426); test: Inhibition of PIP4K2A ATP labeling site harbouring TVKHGAGAEISTVNPEQYSK in human Huh-7 cell lysate at 1 uM by KiNativ Profiling analysis relative to control; type: subcellular
T1 sequence (whole entry): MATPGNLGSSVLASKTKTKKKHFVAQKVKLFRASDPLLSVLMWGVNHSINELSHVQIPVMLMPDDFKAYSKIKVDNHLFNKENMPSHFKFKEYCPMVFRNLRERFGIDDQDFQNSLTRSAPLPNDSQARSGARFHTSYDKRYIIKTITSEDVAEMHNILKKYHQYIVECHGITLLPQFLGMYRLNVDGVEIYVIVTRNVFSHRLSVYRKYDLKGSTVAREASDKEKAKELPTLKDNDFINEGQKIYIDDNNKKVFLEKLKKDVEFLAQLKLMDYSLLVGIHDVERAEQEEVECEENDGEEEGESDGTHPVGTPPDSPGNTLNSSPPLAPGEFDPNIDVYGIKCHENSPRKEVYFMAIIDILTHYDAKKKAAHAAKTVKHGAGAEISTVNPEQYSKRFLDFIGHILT

[4] = target: Ribosomal protein S6 kinase alpha-3 (Homo sapiens) (UniProt P51812); test: Inhibition of RSK2 domain2 ACT labeling site in human Huh-7 cell lysate at 1 uM by KiNativ Profiling analysis relative to control; type: subcellular
Chain of Ribosomal protein S6 kinase alpha-3 (Homo sapiens) (P51812 whole entry, the tested form may be a part): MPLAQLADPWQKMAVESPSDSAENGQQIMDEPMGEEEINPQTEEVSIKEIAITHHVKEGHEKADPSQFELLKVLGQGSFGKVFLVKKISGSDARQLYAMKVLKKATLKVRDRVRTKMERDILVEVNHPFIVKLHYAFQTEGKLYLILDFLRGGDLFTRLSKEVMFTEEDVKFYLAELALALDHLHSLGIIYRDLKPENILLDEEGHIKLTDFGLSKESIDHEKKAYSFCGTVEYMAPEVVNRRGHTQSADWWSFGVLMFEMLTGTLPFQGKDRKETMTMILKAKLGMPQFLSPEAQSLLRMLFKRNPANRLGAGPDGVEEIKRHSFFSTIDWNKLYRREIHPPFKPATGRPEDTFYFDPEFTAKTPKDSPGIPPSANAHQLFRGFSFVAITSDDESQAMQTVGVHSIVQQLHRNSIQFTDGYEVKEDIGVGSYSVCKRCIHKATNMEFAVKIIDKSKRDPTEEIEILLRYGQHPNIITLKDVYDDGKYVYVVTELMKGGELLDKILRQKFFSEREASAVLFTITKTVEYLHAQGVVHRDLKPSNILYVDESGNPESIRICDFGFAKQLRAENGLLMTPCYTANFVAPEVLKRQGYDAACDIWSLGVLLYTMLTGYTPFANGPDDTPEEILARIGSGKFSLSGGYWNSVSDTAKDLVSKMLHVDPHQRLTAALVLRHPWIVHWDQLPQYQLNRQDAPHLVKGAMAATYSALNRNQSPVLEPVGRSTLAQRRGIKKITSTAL

[5] = target: Calcium/calmodulin-dependent protein kinase type II subunit beta (Homo sapiens) (UniProt Q13554); test: Inhibition of CaMK2b Lys2 labeling site in human Huh-7 cells at 1 uM by KiNativ Profiling analysis relative to control; type: cell-based
Chain of Calcium/calmodulin-dependent protein kinase type II subunit beta (Homo sapiens) (Q13554 whole entry): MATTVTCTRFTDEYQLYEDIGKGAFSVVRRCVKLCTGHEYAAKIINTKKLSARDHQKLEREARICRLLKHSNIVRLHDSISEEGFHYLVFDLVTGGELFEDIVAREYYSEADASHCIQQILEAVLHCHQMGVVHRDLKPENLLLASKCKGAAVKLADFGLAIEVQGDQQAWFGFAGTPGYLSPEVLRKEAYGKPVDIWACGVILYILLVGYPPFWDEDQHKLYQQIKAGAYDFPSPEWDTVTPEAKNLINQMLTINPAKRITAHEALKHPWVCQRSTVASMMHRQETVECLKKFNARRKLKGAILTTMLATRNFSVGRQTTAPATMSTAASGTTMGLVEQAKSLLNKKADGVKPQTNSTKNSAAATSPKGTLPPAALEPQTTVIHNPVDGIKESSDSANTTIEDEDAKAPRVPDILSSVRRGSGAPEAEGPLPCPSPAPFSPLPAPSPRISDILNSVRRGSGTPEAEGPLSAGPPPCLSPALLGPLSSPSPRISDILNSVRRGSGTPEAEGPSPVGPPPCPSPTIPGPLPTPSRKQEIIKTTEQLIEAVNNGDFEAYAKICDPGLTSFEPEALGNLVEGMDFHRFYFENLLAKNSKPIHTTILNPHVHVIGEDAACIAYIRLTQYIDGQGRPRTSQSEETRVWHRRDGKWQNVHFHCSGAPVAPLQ

[6] = test system: 293-IL-1R; test: Inhibition of IL-1alpha induced p105 phosphorylation level in human 293-IL-1R cells preincubated for 1 hr followed by IL-1 alpha stimulation and measured after 30 mins by Western blot analysis; type: functional, cell-based; details: dose 0.01-10 µM
[7] = target: T2, Serine/threonine-protein kinase STK11 (Homo sapiens) (UniProt Q15831); test: Inhibition of LKB1 (unknown origin) at 10 uM by Ambit Kinomescan binding assay
T2 sequence (whole entry): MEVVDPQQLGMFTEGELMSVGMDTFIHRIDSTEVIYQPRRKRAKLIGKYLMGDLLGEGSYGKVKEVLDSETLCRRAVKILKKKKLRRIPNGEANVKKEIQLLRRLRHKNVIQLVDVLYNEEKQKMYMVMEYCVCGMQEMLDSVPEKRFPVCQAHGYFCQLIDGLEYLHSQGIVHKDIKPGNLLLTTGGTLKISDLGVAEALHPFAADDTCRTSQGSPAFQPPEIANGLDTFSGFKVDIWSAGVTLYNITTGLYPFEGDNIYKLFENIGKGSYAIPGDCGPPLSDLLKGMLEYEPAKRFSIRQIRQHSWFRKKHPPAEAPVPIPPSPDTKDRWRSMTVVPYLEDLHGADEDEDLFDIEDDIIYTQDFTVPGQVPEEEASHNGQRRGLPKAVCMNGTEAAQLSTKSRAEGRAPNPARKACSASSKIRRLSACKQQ

[8] = target: TGF-beta receptor type-1 (Homo sapiens) (UniProt P36897); test: Inhibition of TGFBR1 (unknown origin) at 10 uM by Ambit Kinomescan binding assay
Chain of TGF-beta receptor type-1 (Homo sapiens) (P36897 whole entry, the tested form may be a part): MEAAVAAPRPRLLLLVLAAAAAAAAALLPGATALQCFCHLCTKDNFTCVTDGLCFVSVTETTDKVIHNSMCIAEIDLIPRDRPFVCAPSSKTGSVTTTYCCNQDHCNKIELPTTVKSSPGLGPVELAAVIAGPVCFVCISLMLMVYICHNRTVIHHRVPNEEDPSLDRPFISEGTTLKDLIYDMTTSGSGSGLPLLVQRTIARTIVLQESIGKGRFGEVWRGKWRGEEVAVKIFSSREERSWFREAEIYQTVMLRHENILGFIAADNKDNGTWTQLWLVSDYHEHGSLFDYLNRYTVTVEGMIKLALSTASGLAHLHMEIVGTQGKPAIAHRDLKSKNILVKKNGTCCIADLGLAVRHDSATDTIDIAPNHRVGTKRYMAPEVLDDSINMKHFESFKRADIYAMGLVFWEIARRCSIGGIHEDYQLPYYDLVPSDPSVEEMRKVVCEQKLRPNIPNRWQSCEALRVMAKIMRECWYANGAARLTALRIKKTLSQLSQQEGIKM

[9] = target: Tyrosine-protein kinase JAK1 (Homo sapiens) (UniProt P23458); test: Inhibition of JAK1 domain2 Lys1 labeling site in human A-375 cells at 0.5 uM by KiNativ Profiling analysis relative to control; type: cell-based
[10] = Inhibition of […] ATP labeling site in human Huh-7 cells at 10 uM by KiNativ Profiling analysis relative to control; details: condition cancer
[11] = target: Ribosomal protein S6 kinase alpha-3 (Homo sapiens) (UniProt P51812); test: Inhibition of RSK2 Domain 2 K2 labeling site harbouring DLKPSNILYVDESGNPESIR in human Huh-7 cells at 10 uM by KiNativ Profiling analysis relative to control; type: cell-based
[12] = target: Tyrosine-protein kinase JAK3 (Homo sapiens) (UniProt P52333); test: Inhibition of JAK3 JH1catalytic domain (unknown origin) at 10 uM by Ambit Kinomescan binding assay relative to control; values are per cent of control
[13] = target: Ephrin type-A receptor 7 (Homo sapiens) (UniProt Q15375); test: Inhibition of EPHA7 (unknown origin) at 1 uM by Ambit Kinomescan binding assay relative to control
[14] = target: Serine/threonine-protein kinase SIK3 (Homo sapiens) (UniProt Q9Y2K2); test: Inhibition of QSK (unknown origin) at 1 uM by Ambit Kinomescan binding assay relative to control
[15] = target: Activated CDC42 kinase 1 (Homo sapiens) (UniProt Q07912); test: Inhibition of TNK2 (unknown origin) at 1 uM by Ambit Kinomescan binding assay relative to control
[16] = target: High affinity nerve growth factor receptor (Homo sapiens) (UniProt P04629); test: Inhibition of TRKA (unknown origin) at 1 uM by Ambit Kinomescan binding assay relative to control
Chain of High affinity nerve growth factor receptor (Homo sapiens) (P04629 33-796 limits assumed): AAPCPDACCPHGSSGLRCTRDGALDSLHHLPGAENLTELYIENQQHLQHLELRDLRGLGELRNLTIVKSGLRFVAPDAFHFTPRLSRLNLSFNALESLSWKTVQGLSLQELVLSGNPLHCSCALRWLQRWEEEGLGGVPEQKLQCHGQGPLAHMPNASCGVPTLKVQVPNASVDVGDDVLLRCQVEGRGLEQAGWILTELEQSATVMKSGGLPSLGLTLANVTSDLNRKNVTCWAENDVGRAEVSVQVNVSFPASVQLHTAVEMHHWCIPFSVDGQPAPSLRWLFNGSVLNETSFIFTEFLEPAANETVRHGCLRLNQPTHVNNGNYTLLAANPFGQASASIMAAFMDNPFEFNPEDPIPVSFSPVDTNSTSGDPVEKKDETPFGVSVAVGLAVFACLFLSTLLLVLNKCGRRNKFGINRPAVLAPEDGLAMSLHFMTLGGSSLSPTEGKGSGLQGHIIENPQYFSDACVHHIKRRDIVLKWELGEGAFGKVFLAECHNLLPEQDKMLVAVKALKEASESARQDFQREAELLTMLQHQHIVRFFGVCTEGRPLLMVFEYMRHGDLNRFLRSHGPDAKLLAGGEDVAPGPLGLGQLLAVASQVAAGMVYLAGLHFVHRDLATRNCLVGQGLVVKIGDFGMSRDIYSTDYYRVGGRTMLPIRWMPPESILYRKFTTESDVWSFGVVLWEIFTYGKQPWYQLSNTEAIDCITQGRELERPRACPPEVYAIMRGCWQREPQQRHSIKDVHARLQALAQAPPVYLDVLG

[17] = target: Serine/threonine-protein kinase MARK1 (Homo sapiens) (UniProt Q9P0L2); test: Inhibition of MARK1 Lys2 labeling site in human A-375 cells at 0.05 uM by KiNativ Profiling analysis relative to control; type: cell-based
[18] = target: Mitogen-activated protein kinase kinase kinase 12 (Homo sapiens) (UniProt Q12852); test: Inhibition of DLK (unknown origin) at 1 uM by Ambit Kinomescan binding assay relative to control
Chain of Mitogen-activated protein kinase kinase kinase 12 (Homo sapiens) (Q12852 whole entry, looked up): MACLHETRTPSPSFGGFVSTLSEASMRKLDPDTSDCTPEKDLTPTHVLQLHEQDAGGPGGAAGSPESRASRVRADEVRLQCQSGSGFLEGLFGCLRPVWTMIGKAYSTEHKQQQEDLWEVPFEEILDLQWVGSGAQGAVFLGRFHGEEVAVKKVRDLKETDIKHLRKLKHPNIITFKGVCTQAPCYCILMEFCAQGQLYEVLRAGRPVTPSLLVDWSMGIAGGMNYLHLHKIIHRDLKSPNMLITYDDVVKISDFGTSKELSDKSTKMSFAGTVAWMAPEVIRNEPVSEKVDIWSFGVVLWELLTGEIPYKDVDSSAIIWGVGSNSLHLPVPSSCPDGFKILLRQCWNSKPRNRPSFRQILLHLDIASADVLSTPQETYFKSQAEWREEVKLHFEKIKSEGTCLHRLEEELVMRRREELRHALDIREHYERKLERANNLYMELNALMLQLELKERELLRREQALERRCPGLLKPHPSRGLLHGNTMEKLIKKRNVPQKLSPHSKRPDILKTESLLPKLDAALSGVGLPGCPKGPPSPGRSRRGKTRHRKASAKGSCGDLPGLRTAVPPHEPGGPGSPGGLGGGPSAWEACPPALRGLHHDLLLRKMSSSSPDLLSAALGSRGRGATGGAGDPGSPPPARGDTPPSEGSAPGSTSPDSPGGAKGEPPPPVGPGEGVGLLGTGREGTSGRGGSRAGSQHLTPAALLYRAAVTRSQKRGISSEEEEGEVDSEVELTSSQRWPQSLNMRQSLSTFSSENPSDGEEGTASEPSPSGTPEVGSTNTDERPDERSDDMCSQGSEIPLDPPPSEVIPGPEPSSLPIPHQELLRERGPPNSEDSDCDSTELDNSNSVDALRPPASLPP

[19] = target: Serine/threonine-protein kinase 25 (Homo sapiens) (UniProt O00506); test: Inhibition of YSK1 (unknown origin) at 1 uM by Ambit Kinomescan binding assay relative to control; values are per cent of control
Chain of Serine/threonine-protein kinase 25 (Homo sapiens) (O00506 whole entry, looked up): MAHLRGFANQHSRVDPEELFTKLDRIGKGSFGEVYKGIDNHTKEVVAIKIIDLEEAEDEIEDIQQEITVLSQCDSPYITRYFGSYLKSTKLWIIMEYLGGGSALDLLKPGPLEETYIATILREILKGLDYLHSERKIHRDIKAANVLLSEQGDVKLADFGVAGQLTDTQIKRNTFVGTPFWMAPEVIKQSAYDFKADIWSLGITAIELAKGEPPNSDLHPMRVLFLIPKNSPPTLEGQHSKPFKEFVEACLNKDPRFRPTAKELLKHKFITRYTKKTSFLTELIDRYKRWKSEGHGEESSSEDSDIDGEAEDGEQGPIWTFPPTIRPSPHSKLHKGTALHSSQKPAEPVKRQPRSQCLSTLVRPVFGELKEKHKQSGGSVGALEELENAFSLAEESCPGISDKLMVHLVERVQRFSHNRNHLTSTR

CNc1cc(Oc2cc(C(=O)Nc3cc(N4CCN(C)CC4)cc(C(F)(F)F)c3)ccc2C)ncn1
inhibition [1]: 8.7%
inhibition [2]: -8%
inhibition [3]: -5.4%
inhibition [4]: 1.9%
inhibition [5]: 20.3%

CCN1CCN(Cc2ccc(NC(=O)c3ccc(C)c(Oc4ccnc5[nH]ccc45)c3)cc2C(F)(F)F)CC1
inhibition [6]: Dose-Dependent Effect
inhibition [7]: inactive
inhibition [8]: inactive
inhibition [9]: 30.1%
inhibition at 10 µM [10]: -5.1%
inhibition [11]: 14.5%
percent of control [12]: 2.4%

CCN1CCN(Cc2ccc(NC(=O)c3ccc(C)c(/C=C/c4cnc5[nH]ccc5c4OC)c3)cc2C(F)(F)F)CC1
inhibition [13]: 78%
inhibition [14]: 100%
inhibition [15]: 5.4%
inhibition [16]: 54%
inhibition [17]: 17.5%
inhibition [18]: 74%
percent of control [19]: 100%
